{"source": "paper PMC9118212", "about": "(ACS Omega, 2022)", "key": {"[1]": {"tested_on": "DNA-1 (5′-GTA AGA TGA TTC-3′ and 5′-GAA TCA TCT TAC-3′)", "type": "binding", "settings": "pH 7.2"}, "[2]": {"tested_on": "plasmid DNA pCR 2.1", "test": "Electrophoretic mobility shift assay", "type": "binding", "settings": "100 ng plasmid, 0.1 nmol compound, 2 h at 37 °C, 1% agarose gel"}, "[3]": {"tested_on": "ARPE-19 (retinal epithelium), nontumor", "test": "MTT cytotoxicity assay, ARPE-19", "type": "cell-based", "settings": "Homo sapiens, ARPE-19, 48 h, read-out: IC50 ± SD"}, "[4]": {"tested_on": "HeLa (cervical cancer)", "test": "MTT cytotoxicity assay, HeLa", "type": "cell-based", "settings": "Homo sapiens, 48 h, read-out: IC50 ± SD"}, "[5]": {"tested_on": "LS-180 (colon cancer)", "test": "MTT cytotoxicity assay, LS-180", "type": "cell-based", "settings": "Homo sapiens, LS180, 48 h, read-out: IC50 ± SD"}, "[6]": {"tested_on": "A-549 (lung cancer)", "test": "MTT cytotoxicity assay, A-549", "type": "cell-based", "settings": "Homo sapiens, A549, 48 h, read-out: IC50 ± SD"}}, "note": "Where “and” joins values, the source holds several entries; their conditions need not be identical. Equal values may be shown once.", "data": [{"molecule": "COc1ccc2cc1Oc1ccc(cc1)C[C@H]1c3cc(c(OC)cc3CCN1C)Oc1c(OC)c(OC)cc3c1[C@H](C2)N(C)CC3", "note": "[tetrandrine, S,S-(+)-tetrandrine]", "values": [{"measurement": "Stern–Volmer constant (KSV)", "setting": "[1]", "value": "7.34 × 10^3"}, {"measurement": "Effect on electrophoretic mobility of plasmid DNA", "setting": "[2]", "value": "reduce the mobility of the plasmid"}, {"measurement": "IC50", "setting": "[3]", "value": "8.45 µg/mL and 13.6 µM"}, {"measurement": "IC50", "setting": "[4]", "value": "16.6 µg/mL and 26.7 µM"}, {"measurement": "IC50", "setting": "[5]", "value": "6.43 µg/mL and 10.3 µM"}, {"measurement": "IC50", "setting": "[6]", "value": "12.1 µg/mL and 19.4 µM"}]}]}
